Values of other authors as cited in patent publication US20240418706A1, “QUANTIFICATION OF CIRCULATING REGENERATIVE AND ENDOTHELIAL PROGENITOR CELLS AS PREDICTORS OF HEALTH STATUS” (priority 2022, published 2024).
Where two headings read alike, the source gives them in different places.

What was measured:
[1] = test system: circulating EPC; conditions: lipid lowering therapy
[2] = test system: endothelial responsiveness
[3] = test system: circulating EPC; conditions: in vivo
[4] = >17,000 healthy persons without hyperlipidemia but with elevated high-sensitivity C-reactive protein
[5] = 6 days of G-CSF at 10 μg/kg
[6] = test system: EPC; conditions: in vivo
[7] = 41 patients with large anterior wall AMI
[8] = 114 patients, 56 treated and 58 control

CC(C)c1c(C(=O)Nc2ccccc2)c(-c2ccccc2)c(-c2ccc(F)cc2)n1CC[C@@H](O)C[C@@H](O)CC(=O)O [atorvastatin]
circulating EPC [1]: increase circulating EPC | oxidative stress [1]: reduced oxidative stress

growth hormone: growth hormone, used in "antiaging medicine"
endothelial responsiveness ([2]; healthy volunteers): improve endothelial responsiveness | endothelial responsiveness ([2]; patients with congestive heart failure): improve endothelial responsiveness

CC(C)c1nc(N(C)S(C)(=O)=O)nc(-c2ccc(F)cc2)c1/C=C/[C@@H](O)C[C@@H](O)CC(=O)O [Crestor]
circulating EPC levels [3]: increase circulating EPC levels | CRP levels [4]: lowering CRP levels | incidence of major cardiovascular incidents [4]: significantly reduced

B1: G-CSF: Granulocyte colony stimulating factor, used clinically for mobilization of hematopoietic stem cells (protein, UniProt P09919 31-207, looked up)
Granulocyte …: TPLGPASSLPQSFLLKCLEQVRKIQGDGAALQEKLVSECATYKLCHPEELVLLGHSLGIPWAPLSSCPSQALQLAGCLSQLHSGLFLYQGLLQALEGISPELGPTLDTLQLDVADFATTIWQQMEELGMAPALQPTQGAMPAFASAFQRRAGGVLVASHLQSFLEVSYRVLRHLAQP
myocardial wall at the area of infarct ([5]; four months after the infarct, sustained over a year, compared to controls): thicker myocardial wall | ejection fraction ([5]; in comparison to controls): Statistically significant improvements | pathological remodeling ([5]; in comparison to controls): inhibition of pathological remodeling | mobilization of EPC [6]: stimulates mobilization of EPC | LVEF [7]: improvement in LVEF | pathological remodeling [7]: diminished pathological remodeling | infarct size, left ventricular function, or coronary restenosis [8]: no influence
